Several values for one entry are separate records, joined by “and”; a condition that tells them apart may be missing. Identical values can stand only once. Like-named read-outs stand apart in the source and are kept apart here. No end group written: not given here.
How the values were obtained:
[1] = biological target: recombinant human or murine heat shock protein 70 (hsp70); format: binding
CD8+ T cells = system: CD8+ T cells; set-up: species or system mice; settings: mouse, in vivo
[2] = system: SIINFEKL-pulsed target cells; assay: 51Cr-release CTL assay after immunization of mice; format: in vivo; settings: for CTL assay: % killing at 200:1 E/T: SIINFEKL-pulsed target cells
Protocol: Mice were immunized s.c. at the base of the tail with the complexes listed above—[…] (SEQ ID NO:359) alone was added at a five-fold molar excess of the […] (SEQ ID NO:358) dose. 7 d later, spleens were harvested and stimulated in vitro with […] (SEQ ID NO:357) peptide. Values within bars represent the amount of epitope delivered. 100:1 E:T ratio shown.
In the same experiment, a ^51Cr-release assay as described above was done using […]-pulsed target cells. At an effector to target cell ratio of 200:1, the percent killing results obtained are shown in the far right column of the following table.

[3] = system: γ-interferon-secreting CD8+ cells; assay: γ-interferon-secreting CD8+ cells after immunization of mice and in vitro restimulation with […]; format: in vivo; settings: mice immunized day 0, splenocytes day 7, restimulated 5 days; FIG. 1
Protocol: Non-covalent complexes of recombinant human heat shock protein 70 and hybrid antigens of the invention were evaluated for biological activity in vivo. To evaluate the induction of an antigen-specific immune response, mice were immunized on day 0 with one of the following: (1) 100 μg human hsp70; (2) a noncovalent complex of 100 μg hsp70 and 15 μg […] (SEQ ID NO:357) (OVA peptide); (3) a noncovalent complex of 100 μg hsp70 and 15 μg […] (SEQ ID NO:368) (N-terminal OVA peptide, C-terminal heat shock protein binding domain […] (SEQ ID NO:358), GSG linker in between); and (4) a noncovalent complex of […] and 15 μg […] (SEQ ID NO:367) (N-terminal OVA peptide, C-terminal heat shock protein binding domain […] (SEQ ID NO:359), GSG linker in between).
On day 7, splenocytes were obtained from the immunized animals and were restimulated with peptide ([…]) (SEQ ID NO:357) in vitro for 5 days, after which the percent of γ-interferon-secreting CD8+ cells was determined.

[4] = read-out: Epitope alone: Affinity for hsp70
[5] = read-out: Hybrid antigen comprising epitope: Affinity for hsp70
[6] = pH 8, read-out: Kd, peptide (epitope), heat shock protein-binding domain: None
[7] = read-out: Kd, heat shock protein-binding domain: HWDFAWPW, pH 8, read-out: Kd, heat shock protein-binding domain: […]
[8] = read-out: Kd, heat shock protein-binding domain: FYQLALTW, pH 8, read-out: Kd, heat shock protein-binding domain: […]
[9] = read-out: Kd, heat shock protein-binding domain: NLLRLTGW, pH 8, read-out: Kd, heat shock protein-binding domain: […]
[10] = read-out: Kd, heat shock protein-binding domain: RKLFFNLRW, pH 8, read-out: Kd, heat shock protein-binding domain: […]

Substance: AFHHVAREL [reference compound]
- Kd [1, 4]: 84 µM

Substance: AFHHVARELGSGNLLRLTGW
- Kd [1, 5]: 2.1 µM

Substance: AIIRILQQL [reference compound]
- Kd [1, 4]: 93 µM

Substance: AIIRILQQLGSGNLLRLTGW
- Kd [1, 5]: 0.6 µM

Substance: ALFDIESKV [PSMA P2, reference compound]
- Kd [1, 6]: 145 µM

Substance: ALFDIESKVgsgHWDFAWPW (ALFDIESKVGSGHWDFAWPW; not fully specified; printed as ALFDIESKVgsgHWDFAWPW) [PSMA P2 + HWDFAWPW]
- Kd [1, 7]: 22 µM

Substance: ALKHRAYEL [reference compound]
- Kd [1, 4]: 97 µM

Substance: ALKHRAYELGSGNLLRLTGW
- Kd [1, 5]: 1.1 µM

Substance: FYQLALTW
- Kd [1, 8]: 5.9 µM

Substance: GLYDGMEHL [reference compound]
- Kd [1, 4]: 48 µM

Substance: GLYDGMEHLGSGNLLRLTGW
- Kd [1, 5]: 1.1 µM

Substance: HWDFAWPW
- Kd [1, 7]: 120 µM

Substance: HWDFAWPWgsgSIINFEKL (HWDFAWPWGSGSIINFEKL; not fully specified; printed as HWDFAWPWgsgSIINFEKL)
- Kd [1, 7]: 4.3 µM

Substance: HWDFAWPWgsgYMDGTMSQV (HWDFAWPWGSGYMDGTMSQV; not fully specified; printed as HWDFAWPWgsgYMDGTMSQV)
- Kd [1, 7]: 29 µM

Substance: Hsp70: recombinant human heat shock protein 70
- Number of Spots, Con A Positive control (CD8+ T cells): 965
- Number of Spots, Con A positive control (CD8+ T cells): 834
- Number of Spots, Medium control (CD8+ T cells): 1.50 and 1.00
- Number of Spots, SIINFEKL (CD8+ T cells): 0.33
- Number of spots, Con A positive control (CD8+ T cells): 552 spots per 300,000 CD8 T cells
- Number of spots, Medium control (CD8+ T cells): 0.00 spots per 300,000 CD8 T cells
- Number of spots, SIINFEKL (CD8+ T cells): 0.67 spots per 300,000 CD8 T cells
- Number of spots, Unpulsed control (CD8+ T cells): 0.50 spots per 300,000 CD8 T cells
- Number of spots, VSV control (CD8+ T cells): 1.00 spots per 300,000 CD8 T cells
- Number of Spots, SIINFEKL (CD8+ T cells; sc): 0.00
- CTL assay: % killing at 200:1 E/T ([2]; Example 14): 0%
- CTL assay: % killing at 200:1 E/T ([2]; Example 16): 8.45%
- immune response: percent of γ-interferon-secreting CD8+ cells [3]: low level of response

Substance: ILKEPVHGV [reference compound]
- Kd [1, 4]: 83 µM

Substance: ILKEPVHGVGSGNLLRLTGW
- Kd [1, 5]: 1.2 µM

Substance: IMDQVPFSV [Gp100 (“IMD”), reference compound]
- Kd [1, 6]: 2560 µM
- Kd [1, 4]: 2570 µM

Substance: IMDQVPFSVgsgHWDFAWPW (IMDQVPFSVGSGHWDFAWPW; not fully specified; printed as IMDQVPFSVgsgHWDFAWPW)
- Kd [1, 7]: 155 µM

Substance: IMDQVPFSVgsgNLLRLTGW (IMDQVPFSVGSGNLLRLTGW; not fully specified; printed as IMDQVPFSVgsgNLLRLTGW)
- Kd [1, 5]: 0.9 µM
- Kd [1, 9]: 3.1 µM

Substance: KASEKIFYV [reference compound]
- Kd [1, 4]: 57 µM

Substance: KASEKIFYVGSGNLLRLTGW
- Kd [1, 5]: 1.4 µM

Substance: NLLRLTGW
- Kd [1, 9]: 1.85 µM
- effect on induction of an immune response by HSP70: SIINFEKLGSGHWDFAWPW mixture ([2]; binding domain peptide alone added at five-fold molar excess): prevent induction of an immune response

Substance: NLLRLTGWGSGRGYVYQGL
- Kd [1, 5]: 1.4 µM

Substance: NLLRLTGWGSGSHNFEKL
- Kd [1, 5]: 1.6 µM

Substance: PSMA P2 + NLLRLTGW
- Kd [1, 9]: 1.3 µM

Substance: RKLFFNLRW
- Kd [1, 10]: 15 µM

Substance: SIINFEKL [OVA, reference compound]
- Kd [1, 6]: 279 µM

Substance: SIINFEKLgsgFYQLALTW (SIINFEKLGSGFYQLALTW; not fully specified; printed as SIINFEKLgsgFYQLALTW) [OVA + FYQLALTW]
- Kd [1, 8]: 1.43 µM

Substance: SIINFEKLgsgHWDFAWPW (SIINFEKLGSGHWDFAWPW; not fully specified; printed as SIINFEKLgsgHWDFAWPW) [OVA + HWDFAWPW]
- Kd [1, 7]: 40 µM

Substance: SIINFEKLgsgNLLRLTGW (SIINFEKLGSGNLLRLTGW; not fully specified; printed as SIINFEKLgsgNLLRLTGW) [OVA + NLLRLTGW]
- increase in affinity for HSP70 (lower dissociation constant) over SIINFEKLGSGHWDFAWPW [1]: 15 fold
- Kd [1, 9]: 1.2 µM

Substance: SIINFEKLgsgRKLFFNLRW (SIINFEKLGSGRKLFFNLRW; not fully specified; printed as SIINFEKLgsgRKLFFNLRW) [OVA + RKLFFNLRW]
- Kd [1, 10]: 7 µM

Substance: SLFNTVATL [reference compound]
- Kd [1, 4]: 35 µM

Substance: SLFNTVATLGSGNLLRLTGW
- Kd [1, 5]: 1.9 µM

Substance: SLLMWITQVGSGNLLRLTGW
- Kd [1, 5]: 2.2 µM

Substance: SLYNTVATLGSGNLLRLTGW
- Kd [1, 5]: 1.8 µM

Substance: SVYDFFVWL [reference compound]
- Kd [1, 4]: 81 µM

Substance: SVYDFFVWLGSGNLLRLTGW
- Kd [1, 5]: 2.9 µM

Substance: TLGIVCPI [HPV16 E7 (86-93), reference compound]
- Kd [1, 6]: 187 µM

Substance: TLGIVCPIgsgHWDFAWPW (TLGIVCPIGSGHWDFAWPW) [HPV16 E7 (86-93) + HWDFAWPW]
- Kd [1, 7]: 9.1 µM

Substance: TLGIVCPIgsgNLLRLTGW [HPV16 E7 (86-93) + NLLRLTGW]
- Kd [1, 9]: 5.2 µM

Substance: VIYQYMDDL [reference compound]
- Kd [1, 4]: 91 µM

Substance: VIYQYMDDLGSGNLLRLTGW
- Kd [1, 5]: 1.7 µM

Substance: VLDVGDAYFSV [reference compound]
- Kd [1, 4]: 110 µM

Substance: VLDVGDAYFSVGSGNLLRLTGW
- Kd [1, 5]: 2 µM

Substance: YLEPGPVTV [reference compound]
- Kd [1, 4]: 71 µM

Substance: YLEPGPVTVGSGNLLRLTGW
- Kd [1, 5]: 2 µM

Substance: YMDGTMSQV [Tyrosinase (“YMD”), reference compound]
- Kd [1, 6]: 204 µM
- Kd [1, 4]: 209 µM

Substance: YMDGTMSQVgsgHWDFAWPW (YMDGTMSQVGSGHWDFAWPW)
- Kd [1, 7]: 24 µM

Substance: YMDGTMSQVgsgNLLRLTGW
- Kd [1, 5]: 1.8 µM
- Kd [1, 9]: 2.65 µM

Substance: YMLDLQPETT [HPV16 E7 (11-20), reference compound]
- Kd [1, 6]: 91 µM

Substance: YMLDLQPETTgsgHWDFAWPW (YMLDLQPETTGSGHWDFAWPW) [HPV16 E7 (11-20) + HWDFAWPW]
- Kd [1, 7]: 27 µM

From patent US7420037B2, “Heat shock protein-based vaccines and immunotherapies” (Antigenics Inc., priority 2003, dated 2008)
